Measurements published in patent US20260327234A1, “NOVEL COMPOUNDS AS CYP11A1 INHIBITORS AND METHODS OF USE THEREOF” (Shenzhen Ionova Life Science Co., Ltd., priority 2023, published 2026).

Assays:
[1] = molecular target: T1, testosterone (T) production in NCI-H295R cells (Homo sapiens, UniProt P05108); experiment: H295R Steroid Biosynthesis Inhibition Assay - inhibition of testosterone (T) production in NCI-H295R cells; type: cell-based; conditions: 48 h, LC-MS/MS, read-out: Inh. of T IC50
T1 construct: testosterone measured by LC-MS/MS as downstream steroid
T1 sequence (P05108 40-521): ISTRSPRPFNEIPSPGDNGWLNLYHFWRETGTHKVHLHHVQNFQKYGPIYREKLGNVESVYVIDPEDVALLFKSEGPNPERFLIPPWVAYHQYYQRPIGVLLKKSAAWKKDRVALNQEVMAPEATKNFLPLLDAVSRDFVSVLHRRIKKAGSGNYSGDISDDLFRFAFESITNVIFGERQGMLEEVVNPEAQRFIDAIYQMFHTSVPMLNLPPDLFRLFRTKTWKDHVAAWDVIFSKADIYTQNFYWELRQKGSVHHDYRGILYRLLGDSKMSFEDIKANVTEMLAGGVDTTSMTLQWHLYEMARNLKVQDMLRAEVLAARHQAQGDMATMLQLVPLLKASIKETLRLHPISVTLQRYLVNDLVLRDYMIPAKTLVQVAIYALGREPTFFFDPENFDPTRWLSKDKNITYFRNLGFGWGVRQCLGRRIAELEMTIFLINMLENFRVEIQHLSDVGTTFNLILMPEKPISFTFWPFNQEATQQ
Outline: (§1)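 NCI-H295R cells (60,000/well, charcoal-stripped FBS medium) were exposed to compounds at 1000–0.15 nM for 48 h. Pregnenolone and testosterone in medium were quantified by LC-MS/MS with deuterated internal standards. IC50 was fitted with a four-parameter inhibitory dose-response equation.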

CYP11A1 = molecular target: T2, CYP11A1 (Homo sapiens, UniProt P05108); experiment: H295R Steroid Biosynthesis Inhibition Assay - inhibition of pregnenolone (P) production catalyzed by CYP11A1 in NCI-H295R cells; type: cell-based; conditions: 48 h, LC-MS/MS, read-out: Inh. of P IC50
T2 construct: measuring the cellular production of pregnenolone (P) catalyzed by CYP11A1; host or cells: NCI-H295R
T2 sequence (P05108 40-521): T1 sequence (P05108 40-521)
Outline: as §1

| SMILES | IC50 [1] | IC50 (CYP11A1) |
| --- | --- | --- |
| O=c1cc(CN2Cc3ccccc3C2)occ1OC[C@H]1CC[C@H](O)CC1 [Compound 2] | ≤ 0.04 µM | ≤ 0.04 µM |
| CS(=O)(=O)N1CCC(c2cc3oc(CN4Cc5ccc(F)cc5C4)cc(=O)c3o2)CC1 [Compound 17] | ≤ 0.04 µM | ≤ 0.04 µM |
| CS(=O)(=O)N1CCC(c2ccc3cc(CN4Cc5ccccc5C4)cnc3n2)CC1 [Compound 78] | ≤ 0.04 µM | ≤ 0.04 µM |
| O=c1cc(CN2Cc3ccccc3C2)oc2cc(C3CCC(F)(F)CC3)oc12 [Compound 26] | ≥ 0.101 µM | 0.04 to 0.1 µM |
| O=c1cc(CN2Cc3ccccc3C2)oc2cc(C34CCC(O)(CC3)CC4)oc12 [Compound 34] | ≤ 0.04 µM | ≤ 0.04 µM |
| O=C(C(F)F)N1CCC(c2cnc3cc(CN4Cc5ccccc5C4)ccc3n2)CC1 [Compound 103] | ≥ 0.101 µM | 0.04 to 0.1 µM |

Now from value to compound:

| IC50 [1] | IC50 (CYP11A1) | SMILES |
| --- | --- | --- |
| ≥ 0.101 µM | ≤ 0.04 µM | Cn1ccc(C(=O)N2CCC(c3cnc4cc(CN5Cc6ccccc6C5)ccc4n3)CC2)n1 [Compound 106] |
| ≥ 0.101 µM | 0.04 to 0.1 µM | CCNC(=O)N1CCC(c2cnc3cc(CN4Cc5ccccc5C4)ccc3n2)CC1 [Compound 116] |
| ≤ 0.04 µM | ≤ 0.04 µM | COC(=O)N1CCC(c2cnc3cc(CN4Cc5ccccc5C4)ccc3n2)CC1 [Compound 110] |
